“Also recorded” adds a separate entry of the source.

The source of these data is PMC7728754, “MRI-based molecular imaging of epicardium-derived stromal cells (EpiSC) by peptide-mediated active targeting” (Scientific Reports, 2020).

The subject of data set [1] is cultured EpiSCs. The data set is described as follows: Flow cytometry binding of FAM-labelled EPs to cultured EpiSCs. The following applies: 5 µg/ml FAM-labelled peptide, up to 120 min, 37 °C, n = 5. The format is cell-based, rat. As to the method:
EpiSCs were detached from the cell culture flask with PBS-EDTA (5 mM) and resuspended in DMEM at a concentration of 0.5 × 10^6 cells/ml. Cell suspensions were incubated with 5 µg/ml of EP1, EP2, EP3, EP7 and EP9 for up to 120 min at 37 °C. After 10, 20, 40, 80 and 120 min, samples were transferred into tubes containing ice-cold MACS buffer (PBS, 2% FCS, 1 mM EDTA) to stop the reaction. Cells were centrifuged for 5 min at 500 × g and 4 °C, washed twice and finally suspended in MACS buffer with DAPI (4′,6-Diamidino-2-phenylindole dihydrochloride; 1 µg/ml) to label dead cells. Flow cytometric analysis was performed on a BD FACS Canto II (BD Biosciences, Heidelberg, Germany).
(Flow cytometry measures light scatter and fluorescence of single cells or particles in a stream.)

In data set [2] the test system is EpiSC and THP-1 cells. Nature of the data set: Cytotoxicity by DAPI flow cytometry. The class given is cell-based. The note with it: 200 µl of cells + 5 µl EP9PFCs or 1.9 µg EP9, up to 120 min, 37 °C, n = 3. As to the method:
EpiSC and THP-1 cells were incubated with EP9 peptide or ^EP9PFCs (200 µl of cells + 5 µl ^EP9PFCs or 1.9 µg EP9) over a period of 120 min at 37 °C. Samples were withdrawn after 0 min, 15 min, 30 min, 60 min and 120 min and analyzed by flow cytometry. Cells were stained with DAPI (1 µg/ml) to label dead cells.

Data set [3] deals with cultured EpiSCs. The data set is described as follows: Impact of storage on EP9/EP9PFC targeting efficacy. The note with it: stored in phosphate buffer at 4 °C for 24 h, then 30 min at 37 °C on cultured EpiSCs, flow cytometry, n = 3. The format is cell-based, rat. The protocol: EP9 and ^EP9PFCs were stored in phosphate buffer at 4 °C for 6 h and 24 h. Subsequently EP9 and ^EP9PFCs were incubated on cultured EpiSCs for 30 min at 37 °C. Cells were washed twice with MACS buffer and then analyzed by flow cytometry.

In data set [4] the test system is primary human CD14+ monocytes. Nature of the data set: Flow cytometry binding of EP9 to primary human monocytes. The format is cell-based. The following applies: 1.9 µg EP9 in 600 µl cell suspension, up to 45 min, 37 °C, n = 4 (Fig. S3). As to the method:
Blood was withdrawn from healthy human volunteers by venous puncture and 10 ml of whole blood were mixed with 10 ml of PBS and gently laid on top of Histopaque-1077 (Sigma-Aldrich Chemie GmbH). After density centrifugation, the PBMC layer was diluted 1:1 with PBS and a centrifugation step was performed. The cell pellet was subjected to erythrocyte lysis using hypotonic buffer for 10 min at 4 °C. After centrifugation, the cells were resuspended in 8.5 ml DMEM. The cell suspension (600 µl) was incubated with 1.9 µg of EP9 for 45 min, at 37 °C. After 5, 15 and 45 min, samples were transferred into ice cold MACS buffer to stop the reaction and centrifuged for 5 min at 500 × g. Cells were washed with MACS buffer, resuspended in CD14-PE/Cy7 (PE/Cy7 anti-human CD14, Clone 63D3, BioLegend, San Diego, USA) antibody solution and incubated for 30 min at 4 °C. Flow cytometric analysis was performed after two washing steps and suspension in MACS buffer with DAPI (1 µg/ml) using a BD FACS Canto II.

Data set [5] has as its system THP-1 monocytes. Nature of the data set: Surface plasmon resonance, THP-1 monocytes over immobilized EP9. The following applies: SPR, CM5 chip, 30 µl/min, 25 °C, PBS, negative control cells. The class given is binding, human. The protocol:
(§1) To analyse the interaction kinetics between peptide EP9 and EpiSCs, we used a BIAcore X100 system equipped with a CM5 sensor chips (GE Healthcare GmbH, Solingen, Germany). EP9 peptide was immobilized to the surface of the CM5 chip (600 µg/ml; 30 µl/min) using a thiol coupling chemistry (GE Healthcare GmbH). Presence of a free SH group at the C-terminal of EP9 peptide enabled us to efficiently immobilize it through a thiol coupling procedure. Afterward, EpiSCs and THP-1 monocytes (ATCC: TIB-202; 10,000 cells/µl) were injected over the sensor chip to monitor the association between immobilized EP9 peptide and the cells. After injection of the cells, dissociation phase was monitored by introduction of buffer for a period of 300 s. In another experimental strategy, increasing numbers of EpiSCs (200, 400 and 800 × 10^3) were flushed over the immobilized peptide EP9 with a flow rate of 30 µl/min and dissociation was measured for an identical period of time. Finally, to block the EP9 binding sites, EpiSCs were pre-incubated for 30 min with 5 µg of EP9 before injection into the BIAcore system and subjected to the same procedure as described above. All SPR experiments were carried out at 25 °C in PBS.
A general note: In SPR one partner is held on a chip, and binding of the other changes the refractive index at the surface.

Data set [6] deals with EpiSCs. The data set is described as follows: Surface plasmon resonance, EpiSCs over immobilized EP9. The format is binding, rat. The following applies: SPR, 25 °C, PBS. The protocol:
as §1

In the case of ATKTIAP [EP2], in data set [1], the “Binding to cultured EpiSCs” value is “strong binding”.

On to KLMLPRP [EP9], for which the Acute cytotoxic effects result in data set [2] is recorded as “did not find evidence for acute cytotoxic effects”. In data set [3], the “Cellular labelling of EpiSCs after storage” value is given as “severely reduced”. Also, in data set [4], the “Binding to primary monocytes” value is listed as “not detectable”. Besides, the “Association of THP-1 monocytes to immobilized peptide” value in data set [5] is “only minor association”. Moreover, the “Association of EpiSCs to immobilized peptide” value in data set [6] (CM5 chip, thiol coupling, 30 µl/min) is on record as “rapidly associated”. Moreover, in data set [6] (EpiSCs over thiol-immobilized EP9, 30 µl/min), the Dissociation rate amounted to 0.005 s⁻¹. For the same substance, in data set [1], the “Binding to cultured EpiSCs” value is “strong binding; also recorded: best binding properties”.

Take QSHALMA [EP7]: the “Binding to cultured EpiSCs” value in data set [1] is reported as “strong binding”.

Take SEPIVPL [EP1]: the “Binding to cultured EpiSCs” value in data set [1] is “strong binding”.

On to THVYRDE [EP3], for which the “Binding to cultured EpiSCs” value in data set [1] was “strong binding”.
